How the values were obtained:
Test in all cases: cells
Set-up in all cases: species or system AML cell lines (8); Secondary HTS, 10-point dose-response in triplicate, Cell Titer Glo viability, four-parameter fit EC50
ML-2 = conditions: Homo sapiens, ML-2, 72 h, read-out: ML-2
M07e = conditions: M-07e, 72 h, read-out: M07e
MV4-11 = conditions: Homo sapiens, MV4-11, 72 h, read-out: MV4-11
U937 = conditions: Homo sapiens, U-937, 72 h, read-out: U937
CHRF288-11 = conditions: 72 h, read-out: CHRF288-11
CMK = conditions: Homo sapiens, CMK, 72 h, read-out: CMK
CMS = conditions: 72 h, read-out: CMS
MOLM-13 = conditions: Homo sapiens, MOLM-13, 72 h, read-out: MOLM-13

SMILES | EC50 (ML-2) | EC50 (M07e) | EC50 (MV4-11) | EC50 (U937) | EC50 (CHRF288-11) | EC50 (CMK) | EC50 (CMS) | EC50 (MOLM-13)
Cc1cc2nc(NCCCO)n(CC(=O)c3cc(C(C)(C)C)c(O)c(C(C)(C)C)c3)c2cc1C [SJ000786025, CID-2858522] | > 10 µM | > 10 µM | > 10 µM | > 10 µM | > 10 µM | > 10 µM | > 10 µM | > 10 µM
N[C@H](CCC(=O)N[C@@H](Cc1c[nH]c2ccccc12)C(=O)O)C(=O)O [SJ000795988, GOLOTIMOD] | > 10 µM | > 10 µM | > 10 µM | > 10 µM | > 10 µM | > 10 µM | > 10 µM | > 10 µM
Cc1ccc(C(=O)COC(=O)c2cccc(NC(=O)c3ccc([N+](=O)[O-])cc3[N+](=O)[O-])c2)cc1 [SJ000796012, FM19G11] | > 10 µM | > 10 µM | > 10 µM | > 10 µM | > 10 µM | > 10 µM | > 10 µM | > 10 µM
CC(C)Oc1ccc(-c2cnc3c(-c4ccnc5ccccc45)cnn3c2)cc1 [SJ000796016, DMH-1] | > 10 µM | > 10 µM | > 10 µM | > 10 µM | > 10 µM | > 10 µM | > 10 µM | 0.0063 µM
Cc1nn(C)c(C)c1C(=O)N1CCN(Cc2nc3ccccc3n2CC(C)(C)C)CC1 [SJ000796025, FTASE INHIBITOR III] | > 10 µM | > 10 µM | > 10 µM | > 10 µM | > 10 µM | 3.1 µM | > 10 µM | > 10 µM
COC1=C2C[C@@H](C)C[C@H](OC)[C@H](O)[C@@H](C)/C=C(\C)[C@H](OC(N)=O)[C@@H](OC)/C=C\C=C(/C)C(=O)NC(=CC1=O)C2=O [SJ000796035, GELDANOMYCIN] | > 10 µM | > 10 µM | 0.0098 µM | > 10 µM | > 10 µM | > 10 µM | > 10 µM | 0.021 µM
COc1ccc(/C=C/c2ccccc2F)cc1 [SJ000796052, CAY10512] | > 10 µM | > 10 µM | > 10 µM | > 10 µM | > 10 µM | > 10 µM | > 10 µM | > 10 µM
CCNC(=O)c1cc2c(-c3cc(OCCN4CCCC4)c(Cl)cc3Cl)nc(N)nc2s1 [SJ000796085, NVP-BEP800] | 0.21 µM | > 10 µM | 0.11 µM | 0.15 µM | 0.43 µM | 0.19 µM | 0.4 µM | 0.087 µM
COC(=O)[C@H](CCSC)NC(=O)c1ccc(NC[C@@H](N)CS)cc1-c1ccccc1 [SJ000803699, FTI-277] | > 10 µM | > 10 µM | > 10 µM | > 10 µM | > 10 µM | > 10 µM | > 10 µM | > 10 µM
O=C(c1cn(Cc2cncn2Cc2ccc(Br)cc2)cc1-c1cccc2ccccc12)N1CCOCC1 [SJ000803701, LB 42708] | 2.3 µM | > 10 µM | 5 µM | > 10 µM | > 10 µM | > 10 µM | 3.4 µM | 2.5 µM
CSCC[C@@H](NC(=O)c1ccc(CNCc2cnc[nH]2)cc1-c1ccccc1C)C(=O)OCc1ccccc1 [SJ000803709, FTI-2628] | > 10 µM | > 10 µM | > 10 µM | 2 µM | > 10 µM | > 10 µM | > 10 µM | > 10 µM
CSCC[C@H](NC(=O)c1ccc(NC(=O)[C@@H](N)CS)cc1)C(=O)O [SJ000803714, H-CYS-4-ABZ-MET-OH] | > 10 µM | > 10 µM | > 10 µM | 2.7 µM | > 10 µM | > 10 µM | > 10 µM | > 10 µM
COC(=O)[C@H](CC(C)C)NC(=O)c1ccc(NCc2cnc[nH]2)cc1-c1cccc2ccccc12 [SJ000803715, GGTI-2147] | > 10 µM | > 10 µM | > 10 µM | > 10 µM | > 10 µM | > 10 µM | > 10 µM | 1.1 µM
CSCC[C@H](NC(=O)[C@H](Cc1ccccc1)NC[C@@H](NC[C@@H](N)CS)C(C)C)C(=O)O [SJ000803726, FTASE INHIBITOR I] | > 10 µM | > 10 µM | > 10 µM | > 10 µM | > 10 µM | > 10 µM | > 10 µM | > 10 µM
Cc1cc(C(C)Nc2ccccc2)c2nc(N3CCOCC3)cc(=O)n2c1 (centres unmarked) [SJ000803731, TGX-221] | > 10 µM | > 10 µM | > 10 µM | > 10 µM | > 10 µM | > 10 µM | > 10 µM | 8 µM
Cc1c(N)nc([C@H](CC(N)=O)NC[C@H](N)C(N)=O)nc1C(=O)N[C@H](C(=O)N[C@H](C)[C@@H](O)[C@H](C)C(=O)N[C@H](C(=O)NCCc1nc(-c2nc(C(=O)NCCC[S+](C)C)cs2)cs1)[C@@H](C)O)[C@@H](OC1OC(CO)C(O)C(O)C1OC1OC(CO)C(O)C(OC(N)=O)C1O)c1cnc[nH]1 (some centres unmarked) [SJ000804032, BLEOMYCIN] | > 10 µM | > 10 µM | > 10 µM | > 10 µM | > 10 µM | > 10 µM | > 10 µM | 6.9 µM
O=C(c1ccc(Nc2nccc(-c3cc4ccccc4s3)n2)cc1)N1CCC(N2CCCC2)CC1 [SJ000806482, IKK 16] | 0.42 µM | 4.4 µM | > 10 µM | 1.5 µM | 1 µM | 2.8 µM | 0.45 µM | > 10 µM
CCc1c(O)cc(O)c(C(=O)c2ccc(OCCN3CCOCC3)c(OC)c2)c1CC(=O)N(CCOC)CCOC [SJ000821566, KW-2478] | 0.16 µM | > 10 µM | 0.071 µM | > 10 µM | 6.3 µM | 4.4 µM | > 10 µM | 0.11 µM
CC(C)NCCCn1c(Sc2cc3c(cc2I)OCO3)nc2c(N)ncnc21 [SJ000821568, PU-H71] | 0.082 µM | > 10 µM | 0.023 µM | > 10 µM | 0.17 µM | 0.024 µM | 0.18 µM | 0.019 µM
Cc1cc(I)ccc1Nc1c(C(=O)NOCC2CC2)cc(F)c(F)c1F [SJ000821584, PD 198306] | > 10 µM | > 10 µM | > 10 µM | > 10 µM | > 10 µM | > 10 µM | > 10 µM | > 10 µM
CNC(=O)c1c(F)cccc1Nc1nc(Nc2cc3c(ccn3C(=O)CN(C)C)cc2OC)nc2[nH]ccc12 [SJ000821585, GSK1838705A] | > 10 µM | > 10 µM | > 10 µM | 6.2 µM | > 10 µM | 5.8 µM | > 10 µM | > 10 µM
CCOc1cc(N2CCC(O)CC2)ccc1Nc1ncc2c(n1)N(C)c1ccccc1C(=O)N2C [SJ000821586, XMD 8-92] | > 10 µM | > 10 µM | 3.2 µM | > 10 µM | > 10 µM | 2 µM | > 10 µM | 9.3 µM

From paper PMC6522510 (Nature Communications, 2019)
